Patent publication US7608587B2, “Exendin 4 polypeptide fragment” (Changzhou Pharmaceutical Factory, priority 2005, dated 2009)

Key:
Goto Kokizaki II rats = assay: insulin secretion stimulation in Goto Kokizaki II rats (ELISA); format: in vivo, rat; details: 5 μg subcutaneous, 0-45 minutes
Procedure: Six-month-old (470 g body weight) Goto Kokizaki II rats were taken for the operative procedure. The test animals were administrated by subcutaneous injection of Exendin 4 polypeptides in a dose of 5 μg, while the animals of control group only achieved physiological saline solution. 20 μl of blood samples were obtained from fasted animals at 0, 3, 5, 10, 15, 30 and 45 minutes time points respectively after administration of the test substance.

diabetic animal models = assay: hypoglycemic activity across the diabetic animal models of examples 3-7 (overall statement); format: in vivo; details: assays of examples 3, 4, 5, 6, 7
Excerpt: The effect of hypoglycemic levels of the polypeptide in the present invention is validated with the routine methods in the art, such as the experiments of cell biology, the animal experiments, etc. In embodiments of the present invention, in order to overcome the limitations of the experiments in vitro, preferably employed diabetic animal models to assay the effect of hypoglycemic levels, such as db/db II diabetic mice, Goto-Kokizaki (GK) II type rat, diabetic KK mice, alloxan induced diabetic mice. These animal experiments indicate the Exendin 4 polypeptide fragment represented by formula (I) in the present invention, has a continuous effect of sustaining hypoglycemic activity in vivo and can be used for the diabetes treatment. KK type II diabetic mice (purchased from Shanghai Laboratory Animal Center, Chinese Academy of Sciences, China) with 50 g body weight are subjected to fasting for 2 hours, and are divided into four groups. Two groups are injected with 2 μg Exendin 4, the other two groups are injected with 2 μg Exendin 4 polypeptide fragment presented in the invention. Twenty microliter blood samples are obtained from fasted animals at 0, 0.5, 1, 2, 3, 4, 5 and 6 h time points respectively after administration of the test substance. The sustained hypoglycemic activity is analyzed by using the blood sugar assay kit (purchased from Shanghai Institute of Biological Products, China). The corresponding results of the Exendin 4 polypeptide fragments having the sequences of SEQ ID NO. 1, SEQ ID NO. 2, SEQ ID NO. 3, SEQ ID NO. 4, SEQ ID NO. 5, SEQ ID NO. 6, SEQ ID NO. 7, SEQ ID NO. 8, SEQ ID NO. 9, SEQ ID NO. 10, SEQ ID NO. 11 and SEQ ID NO. 12 are shown in FIG. 7, FIG. 2, FIG. 12, FIG. 17, FIG. 22, FIG. 27, FIG. 32, FIG. 37, FIG. 42, FIG. 47, FIG. 52 and FIG. 57 respectively. The db/db II diabetic mice (purchased from Shanghai Laboratory Animal Center, Chinese Academy of Sciences and Yangzhou University, China) with 50 g body weight are subjected to fasting for 2 hours, the test animals were administrated by subcutaneous injection of Exendin 4 polypeptide fragment in a dose of 2 μg. 20 μl blood samples were obtained from fasted animals at 0, 0.5, 1 and 2 hours time points respectively after administration of the test substance. The sustained hypoglycemic activity is analyzed by using the blood sugar assay kit (purchased from Shanghai Institute of Biological Products, China). The corresponding results of the Exendin 4 polypeptide fragments having the sequences of SEQ ID NO. 1, SEQ ID NO. 2, SEQ ID NO. 3, SEQ ID NO. 4, SEQ ID NO. 5, SEQ ID NO. 6, SEQ ID NO. 7, SEQ ID NO. 8, SEQ ID NO. 9, SEQ ID NO. 10, SEQ ID NO. 11 and SEQ ID NO. 12 are shown in FIG. 8, FIG. 3, FIG. 13, FIG. 18, FIG. 23, FIG. 28, FIG. 33, FIG. 38, FIG. 43, FIG. 48, FIG. 53, FIG. 58 respectively. Five-month-old (body weight 470 g) Goto Kokizaki diabetic rat (purchased from Shanghai Laboratory Animal Center, Chinese Academy of Sciences, China) are taken for the operative procedure. After subjecting to fasting for 2 hours, the test animals were administrated by intraperitoneal injection of 20% glucose in a dose of 1 ml and by subcutaneous injection of Exendin 4 polypeptide fragment in a dose of 5 μg. The control group received only glucose. Twenty microliter blood samples were obtained from fasted animals at 0, 0.5, 1 and 2 hours time points respectively after administration of the test substance. The sustained hypoglycemic activity is determined by using the blood sugar assay kit (purchased from Shanghai Institute of Biological Products, China). The curve 1 indicates the control group. The curve 2 indicates the administration group. Eight-week-old (20 g body weight) mice are taken for the operative procedure. Experimental diabetes in mice was induced by (16 mg/ml) 0.1 ml alloxan by tail vein injection. Animals are divided into five groups. 48 hours later, 2 μg Exendin 4 polypeptide fragment was injected. […]

Substance	insulin secretion of the test group (Goto Kokizaki II rats)	hypoglycemic activity (in words) (diabetic animal models)
SEQ ID NO. 72: solid phase Exendin 4 polypeptide variant of example 8; sequence not printed in the text (HGEGTYTSNLSKQLEEEAVKLFIEWLKNGP; Exendin 4 polypeptide fragment)	recovered	significant hypoglycemic activity
SEQ ID NO. 64: solid phase Exendin 4 polypeptide variant of example 8; sequence not printed in the text (HGEGTYTSNLSKQMEEEAVKLFIEWLKNGP; Exendin 4 polypeptide fragment)	recovered	significant hypoglycemic activity
SEQ ID NO. 70: solid phase Exendin 4 polypeptide variant of example 8; sequence not printed in the text (HGEGTYTSNLSKQLEEEAVKLFIEWLKNGGP; Exendin 4 polypeptide fragment)	recovered	significant hypoglycemic activity
SEQ ID NO. 68: solid phase Exendin 4 polypeptide variant of example 8; sequence not printed in the text (HGEGTYTSNLSKQIEEEAVKLFIEWLKNGP; Exendin 4 polypeptide fragment)	recovered	significant hypoglycemic activity
SEQ ID NO. 69: solid phase Exendin 4 polypeptide variant of example 8; sequence not printed in the text (HGEGTFTSNLSKQLEEEAVKLFIEWLKNGGP; Exendin 4 polypeptide fragment)	recovered	significant hypoglycemic activity
SEQ ID NO. 62: solid phase Exendin 4 polypeptide variant of example 8; sequence not printed in the text (HGEGTYTSNLSKQMEEEAVKLFIEWLKNGGP; Exendin 4 polypeptide fragment)	recovered	significant hypoglycemic activity
SEQ ID NO. 65: solid phase Exendin 4 polypeptide variant of example 8; sequence not printed in the text (HGEGTFTSNLSKQIEEEAVKLFIEWLKNGGP; Exendin 4 polypeptide fragment)	recovered	significant hypoglycemic activity
SEQ ID NO. 67: solid phase Exendin 4 polypeptide variant of example 8; sequence not printed in the text (HGEGTFTSNLSKQIEEEAVKLFIEWLKNGP; Exendin 4 polypeptide fragment)	recovered	significant hypoglycemic activity
SEQ ID NO. 66: solid phase Exendin 4 polypeptide variant of example 8; sequence not printed in the text (HGEGTYTSNLSKQIEEEAVKLFIEWLKNGGP; Exendin 4 polypeptide fragment)	recovered	significant hypoglycemic activity
SEQ ID NO. 71: solid phase Exendin 4 polypeptide variant of example 8; sequence not printed in the text (HGEGTFTSNLSKQLEEEAVKLFIEWLKNGP; Exendin 4 polypeptide fragment)	recovered	significant hypoglycemic activity
